These results are taken from PMC8994274, “A proteolysis-targeting chimera molecule selectively degrades ENL and inhibits malignant gene expression and tumor growth” (Journal of Hematology & Oncology, 2022).

“Also recorded” adds a separate entry of the source.

Data set [1] has as its system MV4;11 cells. Description: Antiproliferation assay (XTT), MV4;11. To be noted: Homo sapiens, MV4-11, 168 h, read-out: EC50 against proliferation of MV4;11 cells. A general note: Tetrazolium assays rely on reduction of a dye to a coloured formazan, in cell work by metabolically active cells.
Description: (§1) Proliferation inhibition assays for suspension blood cancer cells were performed using an XTT assay kit (Biotium), following our previous methods [22]. EC50 values were determined using Prism 5 and from at least three independent experiments.
Data set [2] is described as follows: In vivo toxicity in C57BL/6 mice. The following applies: 30 mg/kg/day for 13 days. The protocol:
In vivo antitumor activity of compound 1 was evaluated in a commonly used mouse model of Molm-13 leukemia. First, in vivo toxicity was assessed in C57BL/6 mice. […] Next, 10^6 Molm-13 cells were injected subcutaneously into NOD-SCID mice, which developed palpable tumors in ~ 1 week and grew rapidly.

The target in data set [3] is T1, mutant ENL (mENL) (Homo sapiens, UniProt Q03111+Q96SW2, INS117NHL).
T1 construct: FLAG (DYK); expressed in transfected cells; host or cells: HEK293T
T1 sequence (Q03111 with tags, fused parts or gaps INS117NHL): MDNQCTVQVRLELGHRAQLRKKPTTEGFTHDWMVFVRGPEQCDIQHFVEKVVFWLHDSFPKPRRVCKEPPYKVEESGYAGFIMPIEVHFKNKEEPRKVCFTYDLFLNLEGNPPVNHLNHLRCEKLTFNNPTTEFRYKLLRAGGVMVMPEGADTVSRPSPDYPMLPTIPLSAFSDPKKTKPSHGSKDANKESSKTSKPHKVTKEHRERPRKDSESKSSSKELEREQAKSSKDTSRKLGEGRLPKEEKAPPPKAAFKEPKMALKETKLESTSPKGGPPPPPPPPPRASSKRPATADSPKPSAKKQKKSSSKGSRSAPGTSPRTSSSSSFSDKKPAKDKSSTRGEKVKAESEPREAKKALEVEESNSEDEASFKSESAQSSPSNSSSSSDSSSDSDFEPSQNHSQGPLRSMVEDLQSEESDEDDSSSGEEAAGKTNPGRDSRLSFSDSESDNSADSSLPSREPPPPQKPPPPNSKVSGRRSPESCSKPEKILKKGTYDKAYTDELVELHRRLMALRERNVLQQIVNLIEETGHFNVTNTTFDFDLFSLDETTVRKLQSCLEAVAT
T1 sequence (Q96SW2 whole entry, stated change not applied): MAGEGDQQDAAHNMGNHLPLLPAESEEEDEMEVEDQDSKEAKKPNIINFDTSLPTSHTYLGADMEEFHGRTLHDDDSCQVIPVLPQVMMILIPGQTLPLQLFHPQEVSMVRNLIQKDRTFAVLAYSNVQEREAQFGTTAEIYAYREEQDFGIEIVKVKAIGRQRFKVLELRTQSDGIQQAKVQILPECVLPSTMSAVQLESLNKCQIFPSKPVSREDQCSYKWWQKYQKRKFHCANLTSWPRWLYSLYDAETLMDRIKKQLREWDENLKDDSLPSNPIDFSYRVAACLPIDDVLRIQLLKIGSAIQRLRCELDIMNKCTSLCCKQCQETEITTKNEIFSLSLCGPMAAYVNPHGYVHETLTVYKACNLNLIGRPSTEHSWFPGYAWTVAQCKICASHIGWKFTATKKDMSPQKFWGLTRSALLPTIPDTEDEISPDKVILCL
T1 sequence (Q16531 whole entry partner): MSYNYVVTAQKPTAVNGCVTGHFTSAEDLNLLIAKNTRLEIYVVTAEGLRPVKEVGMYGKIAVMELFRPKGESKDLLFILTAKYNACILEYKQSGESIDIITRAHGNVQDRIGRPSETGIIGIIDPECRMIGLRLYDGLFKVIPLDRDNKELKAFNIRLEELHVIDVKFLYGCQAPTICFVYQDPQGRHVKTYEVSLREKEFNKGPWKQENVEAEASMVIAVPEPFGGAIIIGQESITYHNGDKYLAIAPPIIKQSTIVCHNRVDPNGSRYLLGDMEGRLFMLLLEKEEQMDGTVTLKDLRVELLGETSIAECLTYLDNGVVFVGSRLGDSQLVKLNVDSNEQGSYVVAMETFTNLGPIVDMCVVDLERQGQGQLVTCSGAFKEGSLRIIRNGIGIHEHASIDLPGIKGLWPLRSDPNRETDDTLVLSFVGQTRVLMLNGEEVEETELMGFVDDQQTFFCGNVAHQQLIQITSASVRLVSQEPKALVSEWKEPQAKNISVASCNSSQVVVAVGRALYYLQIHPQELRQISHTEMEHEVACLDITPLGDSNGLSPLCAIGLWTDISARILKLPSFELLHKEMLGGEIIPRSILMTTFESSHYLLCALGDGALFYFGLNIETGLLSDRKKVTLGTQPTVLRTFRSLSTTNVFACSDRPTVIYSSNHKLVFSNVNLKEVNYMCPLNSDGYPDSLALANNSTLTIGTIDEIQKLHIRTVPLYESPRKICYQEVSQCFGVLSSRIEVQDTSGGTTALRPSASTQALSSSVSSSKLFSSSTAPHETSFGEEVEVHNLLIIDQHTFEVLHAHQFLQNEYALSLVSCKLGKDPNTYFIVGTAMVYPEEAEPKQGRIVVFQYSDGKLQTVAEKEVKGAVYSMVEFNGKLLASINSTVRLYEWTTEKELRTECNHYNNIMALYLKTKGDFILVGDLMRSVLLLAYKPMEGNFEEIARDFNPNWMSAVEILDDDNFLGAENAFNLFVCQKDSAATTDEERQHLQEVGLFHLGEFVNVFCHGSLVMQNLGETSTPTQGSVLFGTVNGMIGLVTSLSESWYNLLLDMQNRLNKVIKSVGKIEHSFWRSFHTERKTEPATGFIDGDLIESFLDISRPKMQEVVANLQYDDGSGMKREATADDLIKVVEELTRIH
Description: Degradation of mutant and WT ENL in mENL-transfected HEK293T cells (Western blot). Type of data set: cell-based. The protocol:
Ability of compound 1 to degrade mutant ENL, which has been implicated to cause Wilms tumor, was evaluated. […] A pcDNA3.1(+)-N-DYK plasmid containing a mutant ENL (mENL) with a short insertion of -NHL- between L117 and R118 [38] was transfected into 5 × 10^5 HEK293T cells. Upon incubation for 24 h, expression of the FLAG-tagged mENL can be dose-dependently detected with as low as 0.04 μg of the plasmid (Fig. 7a). Using a FLAG antibody appeared to be less quantitative because of a higher background staining for the control samples (Fig. 7a–c, left panels).
With 0.1 μg of the plasmid, compound 1 can efficiently degrade both WT and mutant ENL proteins with Dmax of ~ 95% at ~ 500 nM upon 24 h incubation (Fig. 7b). […] It was ineffective with 1 μg of the plasmid (not shown), presumably because the rate of mENL synthesis in cells was higher than that of 1-mediated degradation.
5 × 10^5 HEK293T cells were transfected with mENL containing pcDNA3.1(+)-N-DYK plasmid using jetPRIME (Polyplus Transfection) following the manufacturer's protocol. Upon transfection for 4 h, the media were carefully removed and the cells incubated with fresh media containing the specified concentrations of compound 1 for 24 h before further analysis (using Western blot or qPCR as described above).

For data set [4], the system named is RPMI-8226 cells. Briefly: Antiproliferation assay (XTT), RPMI-8226. The following applies: Homo sapiens, RPMI-8226, 168 h, read-out: Antiproliferative activity, EC50, RPMI-8226.
Description: as §1
Data set [5] deals with T2, AF9 YEATS (Homo sapiens, UniProt P42568).
T2 sequence (P42568 1-138 limits assumed): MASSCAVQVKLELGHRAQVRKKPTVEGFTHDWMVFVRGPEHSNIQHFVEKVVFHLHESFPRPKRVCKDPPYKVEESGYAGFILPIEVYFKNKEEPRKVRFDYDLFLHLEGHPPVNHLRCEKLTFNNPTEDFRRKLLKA
Description: ALPHA assay, inhibition of the AF9 YEATS-H3K27ac interaction.
Description: AlphaScreen binding assay was developed using Perkin-Elmer AlphaScreen Histidine (Nickel Chelate) Detection Kit, following a reported protocol [39]. Data were imported into Prism (version 5.0), and IC50 values from 3 independent experiments with standard deviation were obtained by using a standard dose–response curve fitting.

Data set [6] has as its target T3, ENL (Homo sapiens, UniProt Q03111).
T3 sequence (Q03111 1-559): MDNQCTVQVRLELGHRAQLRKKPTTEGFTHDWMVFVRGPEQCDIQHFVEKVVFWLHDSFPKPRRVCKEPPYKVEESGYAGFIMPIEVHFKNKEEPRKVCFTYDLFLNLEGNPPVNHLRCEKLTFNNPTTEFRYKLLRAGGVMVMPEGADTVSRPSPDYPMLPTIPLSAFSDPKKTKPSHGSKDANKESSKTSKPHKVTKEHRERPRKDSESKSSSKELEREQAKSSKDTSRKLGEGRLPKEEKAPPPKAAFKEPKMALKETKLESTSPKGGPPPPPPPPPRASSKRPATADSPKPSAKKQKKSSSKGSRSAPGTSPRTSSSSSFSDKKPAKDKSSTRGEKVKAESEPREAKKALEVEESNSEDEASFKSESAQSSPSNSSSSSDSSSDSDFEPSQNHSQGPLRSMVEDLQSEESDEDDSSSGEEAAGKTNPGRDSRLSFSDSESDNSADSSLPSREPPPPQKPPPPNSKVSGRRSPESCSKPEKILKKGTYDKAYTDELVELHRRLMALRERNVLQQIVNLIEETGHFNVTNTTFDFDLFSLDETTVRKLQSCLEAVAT
Description: ENL in nucleus and cytoplasm of MV4;11 cells (Western blot). Type of data set: cell-based. Further details: endogenous in cells; host or cells: MV4;11. To be noted: 4 days. The protocol: Upon treatment of MV4;11 cells with these compounds for 4 days, cytoplasmic and nuclear proteins were separated and subjected to SDS-PAGE/Western blot.
3 × 10^6 cells/well were treated with increasing concentrations of a compound for 1 day, and whole proteins were extracted. Equal amounts of proteins were separated on SDS-PAGE and transferred to PVDF membranes. The blots were probed with primary antibodies, followed by anti-rabbit IgG (Thermo Scientific) secondary antibodies.

Data set [7] relates to HoxA9, Meis1 and Myc. Briefly: qPCR expression of HoxA9, Meis1 and Myc in Molm-13 cells. Type of data set: cell-based. To be noted: 4 days. The protocol: Previous studies show ENL is required for expression of MLL1-target genes in MLL1-r leukemia. How compound 1-mediated ENL degradation changes expression of HoxA9, Meis1 and Myc, three characteristic genes in MLL1-r leukemia, was examined. Molm-13 cells were treated with compound 1 for 4 days, after which the RNAs were extracted and analyzed.
10^5 cells/mL were incubated with a compound for 4 days and the RNA was extracted using RNeasy mini kit (#74104, Qiagen). 100–1000 ng of total RNA was reverse transcribed using iScript™ Reverse Transcription Supermix (Bio-Rad) using the manufacturer’s protocol. Quantitative real-time PCR was carried out using Fast SYBR Green Master Mix (Applied Biosystems) according to the manufacturer’s instructions. Measurements were performed in triplicate, using GAPDH as the reference gene. Real-time PCR was performed using Biosystems Step One Plus detection system. The following sequences of primers are used: • MYC (forward: 5′-[…]-3′; reverse: 5′-[…]-3′); • HoxA9 (forward: 5′-[…]-3′; reverse: 5′-[…]-3′); • Meis1 (forward: 5′-[…]-3′; reverse: 5′-[…]-3′); • GAPDH (forward: 5′-[…]-3′; reverse: 5′-[…]-3′).
(Quantitative PCR measures a nucleic acid by following its amplification.)

`C[C@H]1CCCN1Cc1nc2cc(NC(=O)c3ccc4c(cnn4CCCCCCCCNc4cccc5c4C(=O)N(C4CCC(=O)NC4=O)C5=O)c3)ccc2[nH]1` (stereo partly drawn) [Compound 1]: the EC50 in data set [1] amounted to 570 nM; in data set [4], 1200 ± 230 nM. For the same molecule, the Body weight result in data set [2] is reported as “did not cause significant weight losses”. Further, the “Hematopoiesis and overt toxicities” value in data set [2] is given as “did not inhibit normal hematopoiesis or cause other overt toxicities”. In data set [2] (blood test on day-14, 30 mg/kg/day), the “Blood cell counts versus control” value is reported as “no significant changes; also recorded: no significant differences”. Besides, the “Degradation of WT and mutant ENLs” value is listed as “reduced efficiency” in data set [3] (0.2 μg of the plasmid, 500 nM, 24 h) and “ineffective” in data set [3] (1 μg of the plasmid). Besides, the Dmax in data set [3] (HEK-293T, 0.1 μg of the plasmid, ~ 500 nM, 24 h) was ~95%. Also, in data set [5], the IC50 came to 750 ± 15 nM. Besides, the “ENL level in the cytoplasmic extract” value in data set [6] is recorded as “significantly reduced”. Moreover, the “ENL level in the nucleus” value in data set [6] (compound 1 at 500 nM) was “almost depleted”. The “Expression of HoxA9, Meis1 and Myc” value in data set [7] is reported as “significantly inhibit expression”.

A word on the Dmax: it is the largest share of the target that was removed. Lower therefore signals shallow degradation. In general, IC50 refers to the point on the concentration scale where inhibition reaches its midpoint. Higher therefore signals weaker potency.
